Data on two compounds can be found in patent US11690839B2, “Treatment of idiopathic pulmonary fibrosis” (TAKEDA GMBH, priority 2017, dated 2023).

Where two headings read alike, the source gives them in different places.

For test [1], the system named is IPF mice model (DTR+ mice given diphtheria toxin). Type of test: in vivo.
Test [2] has as its system WI-38 human lung fibroblasts. Kind of test: TGF-β induced mRNA expression of pro-fibrotic markers in WI-38 human lung fibroblast cell line. Type of test: cell-based. To be noted: WI-38 cells, various concentrations of Compound A 1 hour before TGF-β (3 ng/mL) and forskolin (1 μM), 24 hours incubation, normalized to GAPDH; FIG. 2. As to the method: 2) In Vitro Effects of PDE4 Inhibitor Compound A in […]
For gene expression assay, WI-38 human lung fibroblasts were suspended in Eagle's minimum essential medium (E-MEM, Invitrogen) containing 10% heat-inactivated fetal bovine serum (FBS) and seeded on 24 well plates as 0.5×10^5 cells/500 μL/well. Twenty-four hours after the seeding, medium was re-placed by E-MEM containing 0.5% FBS. Twenty-four hours after medium change, cells were treated with various concentration of Compound A. After 1 hour, cells were treated with TGF-β (3 ng/mL) and forskolin (1 μM). After the 24-hours incubation, total RNA was ex-tracted from cell lysate using RNeasy 96 Kit (QIAGEN 74182). cDNA was amplified using High-Capacity cDNA Reverse Transcription Kit (ABI 4368813), and target gene mRNA was measured using TaqMan PCR with predesigned primers for type 1 collagen alpha 1 chain (Hs00164004_m1, Applied Biosystems), fibronectin (Hs00365052_m1, Applied Biosystems), connective tissue growth factor (Hs01026927_g1, Applied Biosystems), plasminogen activator inhibitor-1 (Hs00167155_m1, Applied Biosystems) and GAPDH (Hs02758991_g1, Applied Biosystems) as the endogenous reference. The target gene expression levels were normalized by mRNA expression of GAPDH and the data represent the relative mRNA levels to TGF-β/forskolin-treated group.

On to `CCOc1cc2c(cc1OC)C(c1ccc(=O)n(C)c1)=N[C@@H]1CC[C@@H](O)C[C@H]21` [Compound A, 5-((2R,4aR,10bR)-9-Ethoxy-2-hydroxy-8-methoxy-1,2,3,4,4a,10b-hexahydro-phenanthridin-6-yl)-1-methyl-1H-pyridin-2-one], for which the “body weight reduction by induction of epithelial cell injury” value in test [1] (DT day 1-14, Compound A 0.3 or 3.0 mg/kg oral once daily day 11-21, FIG. 1B) is on record as “blunting effect was shown”. For the same compound, the “suppression of lung hydroxyproline content (severity of lung fibrosis)” value in test [1] (DT day 1-14, Compound A oral gavage once daily day 11-21, already starting at 0.3 mg/kg (doses 0.3 and 3.0 mg/kg), assessed day 21, FIG. 1A) is “robust and significant effect on suppression of hydroxyproline content”. In test [2], the “mRNA expression of fibrotic marker genes (type 1 collagen alpha 1, fibronectin, connective tissue growth factor, plasminogen activator inhibitor-1) induced by TGF-β” value is recorded as “significantly suppressed expression of fibrotic marker genes induced by TGF-β”.

As to `Cc1ccc(NC(=O)c2ccc(CN3CCN(C)CC3)cc2)cc1Nc1nccc(-c2cccnc2)n1` [Imatinib, reference compound], the “body weight reduction by induction of epithelial cell injury” value in test [1] (DT day 1-14, imatinib 50 mg/kg intraperitoneal once daily day 11-21, FIG. 1B) was “not blunted”. Also, in test [1] (DT day 1-14, imatinib 50 mg/kg intraperitoneal once daily day 11-21, assessed day 21, FIG. 1A), the “suppression of lung hydroxyproline content (severity of lung fibrosis)” value was “only a moderate efficacy”.
